# In US20250215029A1 (Recludix Pharma, Inc., priority 2022, published 2025):
# Read-outs that look alike come from different tables or passages of the source.
# What was measured:
# [1] = biological target: T1, Recombinant STAT3 protein (STAT3 (G127-I722)) (Homo sapiens, UniProt P40763); assay: STAT3 Fluorescence Polarization (FP) Assay; format: binding; conditions: probe 5-FAM-GpYLPQTV-NH2 2 nM, 45-minute incubation
# T1 construct: Recombinant STAT3 protein (STAT3 (G127-I722))
# Outline: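 Displacement of a fluorescent phosphotyrosine peptide (5-FAM-GpYLPQTV-NH2, 2 nM) from 25 nM recombinant STAT3 G127-I722 was monitored by FP after 45 min at room temperature.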
# [2] = biological target: T2, Recombinant STAT6 protein (STAT6 (W123-T658)) (Homo sapiens, UniProt P42226); assay: STAT6 Fluorescence Polarization (FP) Assay; format: binding; conditions: 45-minute incubation
# T2 construct: Recombinant STAT6 protein (STAT6 (W123-T658))
# T2 sequence (P42226 123-658): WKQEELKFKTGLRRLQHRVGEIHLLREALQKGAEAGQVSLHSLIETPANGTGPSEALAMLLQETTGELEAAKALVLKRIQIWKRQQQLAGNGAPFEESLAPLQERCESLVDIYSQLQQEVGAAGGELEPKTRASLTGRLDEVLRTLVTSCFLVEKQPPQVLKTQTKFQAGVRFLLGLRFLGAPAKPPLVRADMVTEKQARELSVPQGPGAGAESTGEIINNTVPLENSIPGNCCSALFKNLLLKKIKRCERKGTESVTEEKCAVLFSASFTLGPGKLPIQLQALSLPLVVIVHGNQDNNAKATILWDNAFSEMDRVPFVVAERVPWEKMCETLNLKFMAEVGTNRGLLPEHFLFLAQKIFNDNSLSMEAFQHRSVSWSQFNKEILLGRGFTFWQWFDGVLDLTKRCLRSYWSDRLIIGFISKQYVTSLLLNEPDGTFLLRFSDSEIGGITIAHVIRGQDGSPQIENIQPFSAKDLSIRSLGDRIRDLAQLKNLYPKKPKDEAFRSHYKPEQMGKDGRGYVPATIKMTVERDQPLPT
# Outline: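 Competitive FP binding: recombinant STAT6 (W123-T658) at 250 nM, labeled phosphotyrosine peptide at 2 nM, compounds at 1% DMSO, 45 min at RT before reading. IC50 values were obtained from nonlinear regression of mP versus log concentration.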
# [3] = STAT3 (G127-I722) 25 nM, read-out: STAT3 (FP assay IC50 class)
# [4] = STAT6 (W123-T658) 250 nM, probe 5-FAM-Ap[…]-NH2 2 nM, read-out: STAT6 (FP assay IC50 class)
# [5] = STAT3 25 nM, read-out: STAT3 (FP assay IC50)
# [6] = STAT6 250 nM, probe 5-FAM-Ap[…]-NH2 2 nM, read-out: STAT6 (FP assay IC50)
# T1 sequence (P40763 127-722): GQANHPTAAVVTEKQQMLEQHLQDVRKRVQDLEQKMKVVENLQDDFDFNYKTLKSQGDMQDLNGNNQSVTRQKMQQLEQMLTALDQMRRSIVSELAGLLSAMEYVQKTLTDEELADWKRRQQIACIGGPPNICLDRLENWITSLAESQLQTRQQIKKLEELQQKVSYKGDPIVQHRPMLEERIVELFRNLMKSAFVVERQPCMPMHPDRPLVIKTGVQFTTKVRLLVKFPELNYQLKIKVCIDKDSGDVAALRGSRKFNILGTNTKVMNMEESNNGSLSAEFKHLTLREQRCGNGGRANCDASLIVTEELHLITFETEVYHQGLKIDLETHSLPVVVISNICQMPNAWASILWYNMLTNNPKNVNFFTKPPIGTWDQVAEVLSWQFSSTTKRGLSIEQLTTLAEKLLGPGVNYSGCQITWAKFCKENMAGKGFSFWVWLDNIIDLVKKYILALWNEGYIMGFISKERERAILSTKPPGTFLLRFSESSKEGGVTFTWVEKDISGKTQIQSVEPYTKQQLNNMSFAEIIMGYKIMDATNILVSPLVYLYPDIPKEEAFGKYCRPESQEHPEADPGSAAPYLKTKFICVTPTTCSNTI
Compound,"IC50 [1, 3]","IC50 [2, 4]","IC50 [1, 5]","IC50 [2, 6]","IC50 ([2]; STAT6 (W123-T658) 250 nM, probe 5-FAM-ApYKPFQDLI-NH2 2 nM, read-out: STAT6 (FP assay IC50 class))"
"O=C(N[C@H]1CCC[C@H]2CC[C@@H](C(=O)N3CCC(c4cccnc4)C3)N2C1=O)c1cc2cc(CP(=O)(O)O)ccc2s1 (stereo partly drawn) [Compound 508, ((2-(((3S,6S,9aS)-5-oxo-3-(3-(pyridin-3-yl)pyrrolidine-1-carbonyl)octahydro-1H-pyrrolo[1,2-a]azepin-6-yl)carbamoyl)benzo[b]thiophen-5-yl)methyl)phosphonic acid]",1000 to 10000 nM,3000 to 30000 nM,,,
"N#C[C@H]1CN(C(=O)[C@@H]2CC[C@@H]3CCCC[C@H](NC(=O)c4cc5cc(C(F)(F)P(=O)(O)O)ccc5s4)C(=O)N32)C[C@H]1c1ccccc1 (relative stereo) [Compound 92, ((2-(((3S,6S,10aS)-3-(rel-(trans)-3-cyano-4-phenylpyrrolidine-1-carbonyl)-5-oxodecahydropyrrolo [1,2-a]azocin-6-yl)carbamoyl)benzo[b]thiophen-5-yl)difluoromethyl) phosphonic acid]",,,100 to 1000 nM,300 to 3000 nM,
"COc1cncc(C2CN(C(=O)[C@@H]3CC[C@@H]4CCC[C@H](NC(=O)c5cc6cc(CP(=O)(O)O)ccc6s5)C(=O)N43)C2)c1C [Compound 506, ((2-(((3S,6S,9aS)-3-(3-(5-methoxy-4-methylpyridin-3-yl)azetidine-1-carbonyl)-5-oxooctahydro-1H-pyrrolo[1,2-a]azepin-6-yl)carbamoyl)benzo[b]thiophen-5-yl)methyl)phosphonic acid]",1000 to 10000 nM,3000 to 30000 nM,,,
"O=C(N[C@H]1CCC[C@H]2CC[C@@H](C(=O)N3CC(c4nccnc4F)C3)N2C1=O)c1cc2cc(CP(=O)(O)O)ccc2s1 [Compound 538, ((2-(((3S,6S,9aS)-3-(3-(3-fluoropyrazin-2-yl)azetidine-1-carbonyl)-5-oxooctahydro-1H-pyrrolo[1,2-a]azepin-6-yl)carbamoyl)benzo[b]thiophen-5-yl)methyl)phosphonic acid]",1000 to 10000 nM,3000 to 30000 nM,,,
"C[C@@H]1C[C@H]2CC[C@@H](C(=O)N3CC(c4cccnc4)C3)N2C(=O)[C@@H](NC(=O)c2cc3cc(C(F)(F)P(=O)(O)O)ccc3s2)C1 (single isomer, unassigned) [Compound 110, (difluoro(2-(((3S,6S,8R,9aR)-8-methyl-5-oxo-3-(3-(pyridin-3-yl)azetidine-1-carbonyl)octahydro-1H-pyrrolo[1,2-a]azepin-6-yl)carbamoyl)benzo[b]thiophen-5-yl)methyl) phosphonic acid or (difluoro(2-(((3S,6S,8S,9aR)-8-methyl-5-oxo-3-(3-(pyridin-3-yl)azetidine-1-carbonyl)octahydro-1H-pyrrolo[1,2-a]azepin-6-yl)carbamoyl)benzo[b]thiophen-5-yl)methyl) phosphonic acid]",,,< 100 nM,3000 to 30000 nM,
"O=C(N[C@H]1CCC[C@H]2CC[C@@H](C(=O)N3CCC(c4n[nH]cc4F)CC3)N2C1=O)c1cc2cc(C(F)P(=O)(O)O)ccc2s1 (stereo partly drawn) [Compound 591, (fluoro(2-(((3S,6S,9aS)-3-(4-(4-fluoro-1H-pyrazol-3-yl)piperidine-1-carbonyl)-5-oxooctahydro-1H-pyrrolo[1,2-a]azepin-6-yl)carbamoyl)benzo[b]thiophen-5-yl)methyl)phosphonic acid]",1000 to 10000 nM,3000 to 30000 nM,,,
"O=C(N[C@H]1CCCC[C@H]2CC[C@@H](C(=O)NCc3cc[nH]c(=O)c3)N2C1=O)c1cc2cc(C(F)(F)P(=O)(O)O)ccc2s1 [Compound 49, (difluoro(2-(((3S,6S,10aS)-5-oxo-3-(((2-oxo-1,2-dihydropyridin-4-yl)methyl)carbamoyl)deca-hydropyrrolo[1,2-a]azocin-6-yl)carbamoyl)benzo[b]thiophen-5-yl)methyl) phosphonic acid]",,,100 to 1000 nM,3000 to 30000 nM,
"(difluoro(2- (((3S,6S,10aS)-3- ((1R,5S,6S)-6-(5- methyl-1,3,4- oxadiazol-2-yl)-3- azabicyclo[3.1.0] hexane-3- carbonyl)-5- oxodecahydropyrrolo [1,2-a]azocin-6- yl)carbamoyl)benzo [b]thiophen-5- yl)methyl)phosphon ic acid [Compound 804]",100 to 1000 nM,,,,300 to 3000 nM

# Further lines, with some results ahead:
"IC50 [1, 3]","IC50 [2, 4]","IC50 [1, 5]","IC50 [2, 6]",Compound,"IC50 ([2]; STAT6 (W123-T658) 250 nM, probe 5-FAM-ApYKPFQDLI-NH2 2 nM, read-out: STAT6 (FP assay IC50 class))"
100 to 1000 nM,3000 to 30000 nM,,,"CCc1ccncc1C1CN(C(=O)[C@@H]2CC[C@@H]3CCC[C@H](NC(=O)c4cc5cc(CP(=O)(O)O)ccc5s4)C(=O)N32)C1 [Compound 503, ((2-(((3S,6S,9aS)-3-(3-(4-ethylpyridin-3-yl)azetidine-1-carbonyl)-5-oxooctahydro-1H-pyrrolo[1,2-a]azepin-6-yl)carbamoyl)benzo[b]thiophen-5-yl)methyl)phosphonic acid]",
< 100 nM,300 to 3000 nM,,,"O=C(N[C@H]1CCCC[C@H]2CC[C@@H](C(=O)N3CC(c4ccc[nH]c4=O)C3)N2C1=O)c1cc2cc(C(F)(F)P(=O)(O)O)ccc2s1 [Compound 803, (difluoro(2-(((3S,6S,10aS)-5-oxo-3-(3-(2-oxo-1,2-dihydropyridin-3-yl)azetidine-1-carbonyl)decahydropyrrolo[1,2-a]azocin-6-yl)carbamoyl)benzo [b]thiophen-5-yl)methyl) phosphonic acid]",
< 100 nM,3000 to 30000 nM,,,"C[C@H]1CC[C@H](NC(=O)c2cc3cc(CP(=O)(O)O)ccc3s2)C(=O)N2[C@H](CC[C@H]2C(=O)N2CC(c3cnccc3F)C2)C1 [Compound 585, ((2-(((3S,6S,9S,10aR)-3-(3-(4-fluoropyridin-3-yl)azetidine-1-carbonyl)-9-methyl-5-oxodecahydropyrrolo[1,2-a]azocin-6-yl)carbamoyl)benzo[b]thiophen-5-yl)methyl)phosphonic acid]",
100 to 1000 nM,300 to 3000 nM,,,"Cc1nnc(C2CN(C(=O)[C@@H]3CC[C@@H]4CCC[C@H](NC(=O)c5cc6cc(C(F)(F)P(=O)(O)O)ccc6s5)C(=O)N43)CCO2)o1 (stereo partly drawn) [Compound 1127, (difluoro(2-(((3S,6S,9aS)-3-(2-(5-methyl-1,3,4-oxadiazol-2-yl)morpholine-4-carbonyl)-5-oxooctahydro-1H-pyrrolo[1,2-a]azepin-6-yl)carbamoyl)benzo[b]thiophen-5-yl)methyl)phosphonic acid]",
< 100 nM,3000 to 30000 nM,,,"CO[C@@H]1CCN(c2ccncc2C2CN(C(=O)[C@@H]3CC[C@@H]4CCC[C@H](NC(=O)c5cc6cc(CP(=O)(O)O)ccc6s5)C(=O)N43)C2)C1 [Compound 688, ((2-(((3S,6S,9aS)-3-(3-(4-((R)-3-methoxypyrrolidin-1-yl)pyridin-3-yl)azetidine-1-carbonyl)-5-oxooctahydro-1H-pyrrolo[1,2-a]azepin-6-yl)carbamoyl)benzo [b]thiophen-5-yl)methyl) phosphonic acid]",
100 to 1000 nM,3000 to 30000 nM,,,Cc1nnc([C@H]2[C@H](c3ccccc3)CN2C(=O)[C@@H]2CC[C@@H]3CCC[C@H](NC(=O)c4cc5cc(C(F)P(=O)(O)O)ccc5s4)C(=O)N32)o1 (stereo partly shown) [Compound 673],
100 to 1000 nM,300 to 3000 nM,,,"O=C(N[C@H]1CCCC[C@H]2CC[C@@H](C(=O)N3CC(c4nc5ccccc5o4)C3)N2C1=O)c1cc2cc(C(F)(F)P(=O)(O)O)ccc2s1 [Compound 497, ((2-(((3S,6S,10aS)-3-(3-(benzo[d]oxazol-2-yl)azetidine-1-carbonyl)-5-oxodecahydropyrrolo[1,2-a]azocin-6-yl)carbamoyl)benzo[b]thiophen-5-yl)difluoromethyl)phosphonic acid]",
100 to 1000 nM,3000 to 30000 nM,,,"CNC(=O)N1CC[C@@H](NC(=O)[C@@H]2CC[C@@H]3CCCC[C@H](NC(=O)c4cc5cc(C(F)P(=O)(O)O)ccc5s4)C(=O)N32)C1 (stereo partly drawn) [Compound 530, (fluoro(2-(((3S,6S,10aS)-3-(((R)-1-(methylcarbamoyl)pyrrolidin-3-yl)carbamoyl)-5-oxodecahydropyrrolo[1,2-a]azocin-6-yl)carbamoyl)benzo[b]thiophen-5-yl)methyl)phosphonic acid]",
< 100 nM,300 to 3000 nM,,,"N#Cc1cccc(C2CN(C(=O)[C@@H]3CC[C@@H]4CCC[C@H](NC(=O)c5cc6cc(C(F)(F)P(=O)(O)O)ccc6s5)C(=O)N43)C2)n1 [Compound 811, ((2-(((3S,6S,9aS)-3-(3-(6-cyanopyridin-2-yl)azetidine-1-carbonyl)-5-oxooctahydro-1H-pyrrolo[1,2-a]azepin-6-yl)carbamoyl)benzo [b]thiophen-5-yl)difluoromethyl) phosphonic acid]",
